Series [1] in a line: Saturated solubility of itraconazole in solvents and solvent systems. Format: physicochemical.
The test system of series [2] is Hedgehog (Hh) signaling pathway. Conditions: Kim and Beachy, Cancer Cell, 17, 388-399, 2010; read-out: IC50 value for itraconazole (half maximal inhibitory concentration); cited from earlier work.
Series [3] can be described thus: Toxicokinetics of patidegib and metabolite IPI-230 in plasma after twice daily dermal application for 13 weeks. Format: in vivo, Gottingen Minipig. The settings on record: for Cmax / AUC(0-t) / Tmax: Gottingen, minipig, plasma, topical or ocular; for Cmax / AUC(0-t): Gottingen Minipig plasma; for AUC(0-t): read-out: Mean Patidegib AUC0-24; for Tmax: dermal, minipig plasma, read-out: Individual Tmax. As for the experimental part:
A study was conducted to evaluate the toxicokinetics of patidegib when administered twice daily via dermal application for 13 weeks. As described in Example 11, the formulation identified herein as SS14 was prepared, with patidegib concentrations of 2% and 4%. The formulations, along with a placebo, were applied topically to Gottingen Minipigs® twice daily, and blood samples were collected on study days 1, 14 and 90 for analysis of patidegib and its metabolite, IPI-230.
A study was conducted to determine the toxicokinetics of patidegib and its metabolite, IPI-230, when patidegib was administered twice daily (approximately 8 hours apart) to Gottingen Minipigs® via dermal application for 13 weeks.
The formulation identified herein as SS14 was prepared, with 2% patidegib and with 4% patidegib. A placebo formulation was also prepared that was identical in all respects to SS14 except for the absence of the patidegib. The formulation was applied topically to the animals at patidegib dose levels of 0 mg/kg/day (untreated), 0 mg/kg/day (placebo), 40 mg/kg/day, and 80 mg/kg/day to Groups 1, 2, 3, and 4, respectively. Groups 1 and 3 consisted of four animals/sex/group and Groups 2 and 4 consisted of six animals/sex/group. Doses were administered twice daily (approximately 8 hours apart). Blood samples were collected from all animals, survival permitting, on Days 1, 14 (Group 4 only), and 90 predose and at approximately 2, 4, 6, 8 (just prior to the second daily dose), 10, 12, 14, 16, and 24 hours following the first daily dose. Plasma samples were assayed for patidegib and IPI-230. Only the 2-hour samples from the untreated and placebo groups were analyzed.
Noncompartmental analysis was applied to the individual plasma patidegib and IPI-230 concentration data for males and females. The following parameters were estimated: Cmax—Maximum observed concentration; Tmax—Time of maximum observed concentration; AUCTlast—Area under the concentration-time curve from hour 0 to the last measurable concentration, estimated by the linear trapezoidal rule; AUC0-24—Area under the concentration-time curve from hour 0 to hour 24, estimated by the linear trapezoidal rule; DN AUC0-24—Dose normalized AUC0-24, calculated as AUC0-24/dose level; DN Cmax—Dose normalized Cmax, calculated as Cmax/dose level.

Series [4] concerns cellular hedgehog pathway. The settings on record: Tremblay et al., J. Med. Chem. 2009; read-out: half maximal effective concentration for inhibition of cellular hedgehog pathway; cited from earlier work.
Setting [5] is: minimum of 24 hours stirring at 25° C.
Setting [6] is: both sexes, 40 mg/kg/day, Day 90, Group 3, 40 mg/kg/day dermal twice daily, sexes combined MF.
Setting [7] is: both sexes, 80 mg/kg/day, Day 1, Group 4, 80 mg/kg/day dermal twice daily, sexes combined MF.
Where [8] appears, read: both sexes, 80 mg/kg/day, Day 14, Group 4, 80 mg/kg/day dermal twice daily, sexes combined MF.
The mark [9] stands for this setting: both sexes, 80 mg/kg/day, Day 90, Group 4, 80 mg/kg/day dermal twice daily, sexes combined MF.
The mark [10] stands for this setting: female, 40 mg/kg/day, Day 1, Group 3, 40 mg/kg/day dermal twice daily, sex F.
[11] abbreviates: female, 40 mg/kg/day, Day 90, Group 3, 40 mg/kg/day dermal twice daily, sex F.
Where [12] appears, read: female, 80 mg/kg/day, Day 1, Group 4, 80 mg/kg/day dermal twice daily, sex F.
Where [13] appears, read: female, 80 mg/kg/day, Day 14, Group 4, 80 mg/kg/day dermal twice daily, sex F.
[14] abbreviates: female, 80 mg/kg/day, Day 90, Group 4, 80 mg/kg/day dermal twice daily, sex F.
[15] abbreviates: male, 40 mg/kg/day, Day 90, Group 3, 40 mg/kg/day dermal twice daily, sex M.
The mark [16] stands for this setting: male, 80 mg/kg/day, Day 1, Group 4, 80 mg/kg/day dermal twice daily, sex M.
[17] abbreviates: male, 80 mg/kg/day, Day 14, Group 4, 80 mg/kg/day dermal twice daily, sex M.
Where [18] appears, read: male, 80 mg/kg/day, Day 90, Group 4, 80 mg/kg/day dermal twice daily, sex M.

Where two headings read alike, the source gives them in different places.

As for `CCC(C)n1ncn(-c2ccc(N3CCN(c4ccc(OCC5COC(Cn6cncn6)(c6ccc(Cl)cc6Cl)O5)cc4)CC3)cc2)c1=O` [itraconazole, (2R,4S)-rel-1-(butan-2-yl)-4-{4-[4-(4-(4-{[(2R,4S)-2-(2,4-dichlorophenyl)-2-(1H-1,2,4-triazol-1-ylmethyl)-1,3-dioxolan-4-yl]methoxy}phenyl)piperazin-1-yl]phenyl}-4,5-dihydro-1H-1,2,4-triazol-5-one], the “solubility of itraconazole in water” value in series [1] is “highly insoluble”. Besides, in series [1] (setting [5]), the “saturated solubility of itraconazole in N-methyl pyrrolidone” value was determined as 7.65 % w/w, the “solubility of itraconazole in benzyl alcohol” value turned out to be 14.97 % w/w, the “solubility of itraconazole in castor oil” value was 0.01-0.05 % w/w and the “solubility of itraconazole in diisopropyl adipate” value was 0.01-0.05 % w/w. Further, in series [1] (setting [5]), the “solubility of itraconazole in dimethicone 350 CST” value is 0.01-0.05 % w/w, the “solubility of itraconazole in dimethyl isosorbide” value was 2.32 % w/w, the “solubility of itraconazole in ethanol” value is recorded as 0.01-0.05 % w/w and the “solubility of itraconazole in phenoxyethanol” value stood at 7.87 % w/w. Besides, the “solubility of itraconazole in the remaining solvents investigated (not shown)” value in series [1] (setting [5]) is recorded as 0.01-0.20 % w/w. The IC50 in series [2] is 800 nM.
For `CC1=C2C[C@H]3[C@@H](CC[C@@H]4C[C@H](NS(C)(=O)=O)CC[C@@]43C)[C@@H]2CC[C@@]2(C1)O[C@@H]1C[C@H](C)CN[C@H]1[C@H]2C` [patidegib], the “dose proportionality of increases in mean Cmax and AUC0-24” value in series [3] (40 to 80 mg/kg/day, Day 90) was “generally greater than dose proportional”. Moreover, the maximum concentration (Cmax) (as a rule, the maximum level reached in the sampled fluid or tissue) in series [3] (setting [6]) was 21.9 ng/mL; in series [3] (setting [7]) it was 3.93 ng/mL; in series [3] (setting [8]) it was 249 ng/mL; in series [3] (setting [9]) it was 75.8 ng/mL; in series [3] (setting [10]) it was 4.65 ng/mL; in series [3] (setting [11]), 35 ng/mL. Moreover, the maximum concentration (Cmax) turned out to be 4.03 ng/mL in series [3] (setting [12]); 410 ng/mL in series [3] (setting [13]); 141 ng/mL in series [3] (setting [14]); 8.68 ng/mL in series [3] (setting [15]); 3.84 ng/mL in series [3] (setting [16]); 88.7 ng/mL in series [3] (setting [17]). For the same molecule, in series [3] (setting [18]), the Cmax was 21.4 ng/mL. Also, the AUC(0-t) amounted to 329 ng·h/mL in series [3] (setting [6]); 37.1 ng·h/mL in series [3] (setting [7]); 4110 ng·h/mL in series [3] (setting [8]); 1240 ng·h/mL in series [3] (setting [9]); 56.7 ng·h/mL in series [3] (setting [10]); 526 ng·h/mL in series [3] (setting [11]). Further, the AUC(0-t) in series [3] (setting [12]) was determined as 36.3 ng·h/mL; in series [3] (setting [13]), 6820 ng·h/mL; in series [3] (setting [14]), 2310 ng·h/mL; in series [3] (setting [15]) it was 132 ng·h/mL; in series [3] (setting [16]), 37.7 ng·h/mL; in series [3] (setting [17]), 1390 ng·h/mL. In series [3] (setting [18]), the AUC(0-t) was found to be 352 ng·h/mL. Also, the Tmax (as a rule, the time at which the peak concentration occurs) was in the range of 2 to 8 h in series [3] (both sexes, post the first or second dose on Day 1); 2 to 6 h in series [3] (both sexes, post the first or second dose on Days 14 and 90). Also, the EC50 in series [4] was 7 nM.
